Experimental data taken from patent publication US10197574B2, “Analyte detection using near-infrared fluorophores” (Portland State University, priority 2011, dated 2019).
Marks after values point to notes of the source that are not given here.

How the values were obtained:
[1] = UV-visible absorbance spectroscopy of fluorophores (15 μM, 90% aqueous, 10% DMSO); type: physicochemical; settings: for red-shift of absorbance maximum: 15a compared to 20a, anion 15h compared to anion 20c
Procedure: Compounds 20a and 15a were characterized by UV-visible spectroscopy (FIG. 25). Absorbance was measured using 15 μM solutions of each compound in a solution that was 90% aqueous, 10% DMSO. The peaks at 545 nm (light dashed line) and 595 nm (light solid line) represent the respective anions, compounds 20c and 15h, in NaOH (pH 12). The peaks at 515 nm (heavy dashed line) and 525 nm (heavy solid line) represent the predominantly neutral forms of compounds 20a and 15a at pH 6, respectively.
Although the red shift of compound 15a in methanol was modest, its corresponding anion (compound 15h) in DMSO:aqueous base 1:9 was shifted more substantially by 50 nm to […] as compared to anion 20c under the same conditions. Its fluorescence emission was shifted by an even larger […], emitting at 760 nm. The comparatively large shift of the anion 15h supports a polar effect as playing a key role in modulating the HOMO-LUMO gap in the compound. […]
Known seminaphthorhodafluors display long wavelength absorption at high pH; however, the free amino compound in this series respond to low pH with increased long wavelength absorption.

[2] = Absorbance and fluorescence measured in methanol; type: physicochemical; settings: versus analogue with known regiochemistry (8 vs 22, 15a vs 20a)
Procedure: Absorbance and fluorescence of compounds 22 and 8 also were measured in methanol. […] Thus, placement of the hydroxyl group proximal to the xanthene internal oxygen in compound 8 produced a bathochromic shift of 103 nm in the absorption spectrum. The transposition also imparted a corresponding shift in the excitation spectrum, and a large bathochromic shift of 128 nm in the fluorescence emission. Importantly, compound 8 absorbs and emits in the near-infrared with absorption and emission maxima of 701 nm and 816 nm, respectively.
Absorbance and fluorescence of compounds 20a and 15a also were measured in methanol. […] Thus, placement of the hydroxyl group proximal to the xanthene internal oxygen in compound 15a produced a bathochromic shift of 15 nm in the absorbance spectrum. The transposition also imparted a corresponding shift in the excitation spectrum, and a large bathochromic shift of 32 nm in the fluorescence emission.

[3] = Fluorescence emission spectra and Stokes shift of fluorophores (15 μM, 90% aqueous, 10% DMSO); type: physicochemical
Procedure: Compounds 21 and 7 also were characterized by their fluorescence emission spectra. Fluorescence was measured using 15 μM solutions of each compound in a solution that was 90% aqueous, 10% DMSO. For compound 21, the longest wavelength emission observed from the dianion occurred near 680 nm at pH 9. For compound 7 (transposed), the longest wavelength emission observed from the monoanion occurred near 800 nm at pH 9.
The Stokes shift of each compound was measured and determined to be about 80 nm for the compound 21 dianion, and about 150 nm for the compound 7 (transposed) monoanion.
Compounds 22 and 8 also were characterized by their fluorescence emission spectra. Fluorescence was measured using 15 μM solutions of each compound in a solution that was 90% aqueous, 10% DMSO. For compound 22, the longest wavelength emission observed from the anion occurred near 690 nm at pH 9. For compound 8 (transposed), emission was not observed. Given the greater than 800 nm absorbance peak and the typically large Stokes shifts observed in this class of compounds, it is likely that the emission was beyond the working range of the instrument (>850 nm).
The Stokes shift of each compound was measured and determined to be about 80 nm for the compound 22 anion, and unmeasurable for the compound 8 (transposed) neutral form.
Compounds 20a and 15a also were characterized by their fluorescence emission spectra. Fluorescence was measured using 15 μM solutions of each compound in a solution that was 90% aqueous, 10% DMSO. For compound 20a, the longest wavelength emission observed from its corresponding anion, compound 20c, occurred near 640 nm in NaOH (pH 12). For compound 15a (with 3-1 transposition), the longest wavelength emission observed from the corresponding anion, compound 15h, occurred near 760 nm in NaOH.
The Stokes shift of each compound was measured and determined to be about 95 nm for the compound 20c anion, and about 165 nm for the compound 15h (transposed) anion. Thus, the 3-1 transposition enhanced the Stokes shift by about 70 nm.
(§1) Compound 15b also was characterized by its fluorescence emission spectrum and compared to C.SNARF-5. Fluorescence was measured using a 15 μM solution of compound 15b in a solution that was 90% aqueous, 10% DMSO. For C.SNARF-5, the longest wavelength emission observed from the anion occurred near 632 nm (Whitaker et al., Anal. Biochem. 1991, 194, 330-344). For compound 15b (transposed), the longest wavelength emission observed from the phenoxide occurred near 770 nm.
The Stokes shift of each compound was measured and determined to be about 82 nm for the C.SNARF-5 anion, and about 155 nm for the compound 15b (transposed) phenoxide. Thus, the 3-1 transposition enhanced the Stokes shift by about 73 nm.
as §1, with “15d” for “15b”, “SNARF-1.” for “C.SNARF-5.”, “SNARF-1,” for “C.SNARF-5,”, “631” for “632”, “780 nm (NaOH, pH 12).” for “770 nm.”
The Stokes shift of each compound was measured and determined to be about 58 nm for the SNARF-1 anion, and about 150 nm for the compound 15d (transposed) phenoxide. Thus, the 3-1 transposition enhanced the Stokes shift by about 92 nm.
Compounds 20b and 15g also were characterized by their fluorescence emission spectra. Fluorescence was measured using 15 μM solutions of each compound in a solution that was 90% aqueous, 10% DMSO. For compound 20b, the longest wavelength emission observed from the cation occurred near 640 nm at pH 7.4. For compound 15g (transposed), the longest wavelength emission observed from the cation occurred near 770 nm at pH 7.4. […]

[4] = Spectral properties of rhodamine bis-boronic acids and precursors (Table 5); type: physicochemical
From the text: Excitation and emission spectra were normalized to their absorbance at the excitation wavelength, and are proportional to quantum yield.

Emission in blood = assay: Emission in blood; design: species or system porcine
Procedure: Compound 15d (Table 1) was diluted to 40 μM in 50% DMSO:50% 25 mM pH 9 phosphate buffer. […] Emission remained stable for at least 1 hour. The absorption profile matches the output of a laser pointer (635-670 nm; max output <5 mW). NIR emission (80 μM) was clearly visible with a digital camera (Kodak EasyShare Z740) in a NIR photograph taken with 8 sec. exposure collected through a Hoya R72 camera filter (% T<1% at <690 nm, % T>90% at >750 nm).
Its absorbance and fluorescence spectra faded over time, but remained visible after about an hour (although with only 10-20% of its original emission intensity). Molecular modeling has shown favorable structural interactions of compounds 5f and 24 with glutathione (see, e.g., FIG. 20—compound 24).
Spectral behavior of compound 15g (type [c] annulated seminaphthorhodamine methyl ester (free amine) with the 3-1 transposition) was investigated to determine its potential for sensing use in whole blood. Solutions of compound 15g in 10% or 90% by volume whole blood (porcine blood in Na-EDTA, Lampire Biological Laboratories) were investigated in a 3×3 mm cell. […] Throughout much of the spectrum, the dye produces a greater absorbance than the blood alone. The change in absorbance between the two spectra provides the effective absorbance of the dye. […]

[5] = Absorbance and emission in 0.1M NaOH; type: physicochemical
From the text: The absorbance and fluorescence spectra of the fluorophore typically are pH dependent. For example, the absorbance maximum for one ester derivative (compound 15d) in 0.1M NaOH is 620 nm and the emission maximum in same solvent is 770 nm. The Stokes shift in this solvent is 150 nm (3142 cm^−1).

[6] = Saccharide sensing, absorbance and fluorescence response
Procedure: Solvents including MeCN, MeOH, EtOH, DMSO and buffer were initially screened for sugar sensing. […] DMSO mixtures were chosen for further studies.
The final pH 7.4 phosphate buffer concentration was 12.5 mM.

[7] = Saccharide sensing, response to fructose; settings: DMSO:buffer 1:9; estimated from 140-fold fluorescence and 3-fold absorbance increase
[8] = Saccharide sensing, response to ribose; settings: DMSO:buffer 1:1, entire concentration range investigated
Procedure: The spectral behavior of both compounds 51 and 53 in the presence of saccharides was further investigated in both 1:1 and 1:9 DMSO-buffer (final pH 7.4 phosphate buffer concentration of 12.5 mM) solutions. Both bis-boronic acids responded to binding of sugars through a red shift in their emission and the expected increase in fluorescence intensity.
FIGS. 37A-37D show the response of bis-boronic acid 51 to fructose, ribose and glucose under the two solvent conditions mentioned above. […] At high sugar concentrations, the response for all three sugars converged. […] An approximately 1.5-fold increase in both absorbance and fluorescence was observed over the entire concentration range investigated. Binding of all three sugars occurred at lower concentrations as compared to the 1:9 DMSO:buffer system, with the response of both ribose and fructose having already plateaued at 10 mM, the lowest concentration investigated. Unlike the 1:9 solvent system, there were significant spectral differences in the responses toward different sugars (FIG. 37C compared to FIG. 37A).

[9] = DMSO:buffer 1:1, pH 7.4 phosphate buffer 12.5 mM
[10] = DMSO:buffer 1:9, pH 7.4 phosphate buffer 12.5 mM
[11] = DMSO:buffer 1:9, high sugar concentrations, all sugars

In the case of `COC(=O)c1ccccc1-c1c2ccc(=O)cc-2oc2c1ccc1cccc(N)c12` [Compound 15e], the “pH titration of absorption” value ([1]; low pH) is reported as “increased long wavelength absorption and decreased short wavelength absorption at low pH”.

With `COC(=O)c1ccccc1-c1c2ccc(=O)cc-2oc2c1ccc1cccc(O)c12` [Compound 15a] the “red-shift of absorbance maximum” value [1] was 15 nm, the “bathochromic shift in the absorption spectrum” value [2] was 15 nm and the “bathochromic shift in the fluorescence emission” value [2] was 32 nm.

In the case of `O=C1OC2(c3ccccc31)c1ccc3cccc(O)c3c1Oc1c2ccc2cccc(O)c12` [Compound 7], the form in solution ([1]; 1:9 DMSO:buffer below physiological pH of 7.4) is reported as “colorless lactone” and the longest wavelength emission ([3]; NaOH (pH 12), anion/dianion/phenoxide, 15 μM, 90% aqueous, 10% DMSO) is reported as “either too weak to be detected or, more likely, beyond the working range of the instrument”.

In the case of `COC(=O)c1ccccc1-c1c2ccc3cccc(O)c3c2oc2c1ccc1cccc(=O)c12` [Compound 8], the fluorescence emission ([3]; 15 μM, 90% aqueous, 10% DMSO, instrument range to 850 nm) is reported as “not observed”, the “bathochromic shift in the absorption spectrum” value [2] is reported as 103 nm and the “bathochromic shift in the fluorescence emission” value [2] is reported as 128 nm.

With `N=c1ccc2c(ccc3c(-c4ccccc4C(=O)O)c4ccc(N)cc4oc32)c1` [Compound 50] the quantum yield ([4]; DMSO buffer 1:9) was 19%, the “red shift of maximum absorption versus rhodamine 110” value ([4]; DMSO buffer 1:9) was 40 nm and the “red shift of maximum emission versus rhodamine 110” value ([4]; DMSO buffer 1:9) was roughly 100 nm. It also gave an Abs [4, 9] of 542 nm, a Brightness [4, 9] of 6298 and an Em [4, 9] of 630 nm. It also gave an Ex [4, 9] of 542 nm, a Q.Y. [4, 9] of 0.30 and a ε [4, 9] of 21064 M⁻¹ cm⁻¹. For the same molecule, the Abs [4, 10] was 535 nm, the Brightness [4, 10] was 8083 and the Em [4, 10] was 628 nm. For the same molecule, the Ex [4, 10] was 534 nm, the Q.Y. [4, 10] was 0.19 and the ε [4, 10] was 42701 M⁻¹ cm⁻¹.

For `Cc1ccc(C)c(-c2c3ccc4cccc(O)c4c3oc3c2ccc2cccc(=O)c23)c1` [Compound 4a], the “absorption in the blood solution” value (Emission in blood; blood solution) was “clearly visible and remained stable over extended periods of time”.

For `COC(=O)c1ccccc1-c1c2ccc(=[N+](C)C)cc-2oc2c1ccc1cccc(O)c12` [Compound 15d], the absorbance maximum [5] was 620 nm, the emission maximum [5] was 770 nm and the “time emission remained stable” value (Emission in blood; 5% whole blood) was “at least 1 hour”.

In the case of `COC(=O)c1ccccc1-c1c2ccc(=O)cc-2oc2c1ccc1cccc(O)c12` [Compound 15h], the “red-shift of absorbance maximum” value [1] is reported as 50 nm, the absorbance maximum ([1]; anion, DMSO:aqueous base 1:9) is reported as 599 nm and the “bathochromic shift in emission wavelength” value ([3]; anion 15h compared to anion 20c) is reported as 130 nm. For the same molecule, the Stokes shift ([3]; anion/phenoxide in NaOH (pH 12)) was “about 165 nm”, the fluorescence emission ([3]; anion, DMSO:aqueous base 1:9) was 760 nm and the Stokes shift ([3]; anionic form, NIR emission at 760 nm) was 160 nm.

In the case of `O=C(O)c1ccccc1-c1c2ccc3cc(NCc4ccccc4B(O)O)ccc3c2oc2c1ccc1cc(=NCc3ccccc3B(O)O)ccc12` [Compound 53], the increase in emission ([6]; DMSO:buffer 1:1, all three sugars, emission at 720 nm, excitation at 640 nm) is reported as roughly 5 fold and the “quantum yield after binding” value [7] is reported as 0.186.

For `O=C(O)c1ccccc1-c1c2ccc(NCc3ccccc3B(O)O)cc2oc2c1ccc1cc(=NCc3ccccc3B(O)O)ccc12` [Compound 51], the increase in absorbance [8] was “approximately 1.5 fold”, the increase in fluorescence [8] was “approximately 1.5 fold” and the increase in absorbance [6, 11] was roughly 2 fold. For the same molecule, the increase in fluorescence [6, 11] was “greater than 5 fold”, the Abs [4, 9] was 579 nm and the Brightness [4, 9] was 8037. For the same molecule, the Em [4, 9] was 643 nm, the Ex [4, 9] was 580 nm and the Q.Y. [4, 9] was 0.35. The ε [4, 9] was 23096 M⁻¹ cm⁻¹, the Abs [4, 10] was 560 nm and the Brightness [4, 10] was 3032^e. The Em [4, 10] was 638 nm, the Ex [4, 10] was 568 nm and the Q.Y. [4, 10] was 0.15. The ε [4, 10] was 20326 M⁻¹ cm⁻¹.
